# Measured values: patent US20190299005A1, “VAGUS NERVE STIMULATION AND MONITORING” (priority 2018, published 2019)
# Entries after “also recorded” stand apart in the source; their conditions may differ. Where a name gives a salt, the structure may show the parent alone.
# How the values were obtained:
# [1] = system: BALB/c mice (depressive-like behavior); assay: Tail Suspension Test (TST) after oral treatment, intact and vagotomized mice; type: in vivo; settings: for effect on depressive and anxiety behavior in vagotomized mice: sub-diaphragmatic vagotomy prior to oral administration; for dependency of the effect on the vagus nerve: vagotomized mice compared to mice with an intact vagus nerve; for depressive and anxiety behavior in mice: oral administration, intact vagus nerve
# Experimental: BALB/c mice were orally fed antidepressants fluoxetine (18 mg/kg per day), sertraline (6 mg/kg per day) and bupropion (WELLBUTRIN®) (6 mg/kg per day) in the drinking water for 14 days, or JB-1 (2.5-4×10^9 bacteria/day) in the drinking water for 28 days.
# 1 day following oral treatments with the antidepressants, the BALB/c mice were tested for depressive-like behavior with the tail suspension test. Mice were removed from the colony room and moved to a behavioral testing room where they were allowed to habituate for 30 min. Following this period, mice were suspended by the tail using laboratory tape measured to 17 cm (Can et al., Journal of Visualized Experiments 59: e3769, 2012) from a suspension bar in a position whereby they could not escape or hold on to any surfaces. 2 cm of tape was affixed to the mouse tail with the remaining 15 cm used for suspension of the mouse. Animals were left suspended for a period of 6 mins. Animal behavior was video recorded and scored by a blinded observer for freezing behavior. Freezing was calculated as a percentage of total time. Following behavioral testing mice were returned to the housing room and resumed oral treatments for the duration of the study.
# The Tail Suspension Test is a simple screening test for the behavioral effects of antianxiety agents and antidepressants in rodents. This test assesses the inter-individual differences in responses to stressful situations measured by duration of immobility.
# [2] = system: individual single vagal fibers (mesenteric nerve bundle of jejunal segment); assay: Ex vivo vagal nerve fiber recording from mice orally fed antidepressants, lumen perfused with buffer only; parameters: species or system BALB/c mice; settings: fed in the drinking water for 14 days; fluoxetine 18, sertraline 6, bupropion 6 mg/kg per day
# Experimental: The procedure described above in connection with Example 1 and 2 was repeated for the BALB/c mice orally fed with antidepressants fluoxetine (18 mg/kg per day), sertraline (6 mg/kg per day) and bupropion (WELLBUTRIN®) (6 mg/kg per day) in the drinking water for 14 days. Following the oral treatment, the mice were sacrificed and a jejunal segment with mesenteric tissue was recovered as described in Example 1. In this example, the lumens of the jejunal segments were, however, perfused only with KREPS buffer.
# FIG. 16 illustrates the mean interval between spike firing, i.e., average inter-pulse durations, for luminal Krebs control, i.e., from control mice that have not been treated with any antidepressants, and for mice fed with fluoxetine, sertraline or bupropion (WELLBUTRIN®).
# [3] = system: individual single vagal fibers (mesenteric nerve bundle of jejunal segment); assay: Ex vivo vagal nerve fiber recording, test substance in lumen of jejunal segment, post hoc single unit burst analysis; parameters: species or system BALB/c mice; settings: for Average inter-pulse duration, lower 95% CI / Average inter-pulse duration, upper 95% CI / Burst duration, lower 95% CI / Burst duration, upper 95% CI / Inter-burst duration, lower 95% CI / Inter-burst duration, upper 95% CI / Inter-pulse duration within bursts, lower 95% CI / Inter-pulse duration within bursts, upper 95% CI: drug in lumen; for Fraction average inter-pulse duration / Fraction burst duration / Fraction inter-burst duration / Fraction inter-pulse duration within bursts: fractional change (treatment−control)/control; for Fraction average inter-pulse duration: luminal fluoxetine 30 μM, sertraline 10 μM, bupropion 10 μM, JB-1 10^9 cfu/mL, squalamine 10 μM; for Fraction burst duration / Fraction inter-burst duration / Fraction inter-pulse duration within bursts: same luminal concentrations
# Experimental: Adult BALB/c mice were killed by cervical dislocation. Then a 2-3 cm long jejunal segment with attached mesenteric tissue was removed and the oral and anal ends of the jejunal segment were cannulated with plastic tubing, gently emptied of contents by perfusing the lumen with Krebs buffer using a 3 mL plastic syringe whose tip was inserted into the oral opening. The cleaned jejunal segment was placed into a polystyrene petri dish (Falcon 351006, 50 mm×9 mm, Corning, N.Y., USA) filled with Krebs buffer of the following composition (in mM): 118 NaCl, 4.8 KCl, 25 NaHCO3, 1.0 NaH2PO4, 1.2 MgSO4, 11.1 glucose, and 2.5 CaCl2) bubbled with carbogen (95% 02 and 5% 002). The bottom of the dish was previously lined 1-2 mm deep with cured silicone elastomer SYLGARD®, Dow Corning, MI, USA.
# Next the mesenteric nerve bundle was isolated by careful dissection under a stereomicroscope (Leika) using pointed number 5 forceps (Fine Science Tools), and the dish and contents were transferred to an inverted microscope (Nikon).
# The gut segment and attached mesenteric tissue was then pinned linearly, without stretching, from oral to anal in the dish by pushing fine insect pins through the adherent mesentery into the silicone elastomer SYLGARD®. The lumen was gravity perfused (1 ml/min) at room temperature (20-25° C.), with oxygenated Krebs buffer and using several Mariotti bottles (McCarthy, Science 80: 100, 1934) attached to a plastic manifold (World Precision Instruments, Sarasota, Fla., USA). The serosal compartment was separately perfused with pre-warmed (35° C.) Krebs buffer at 4 ml/min. 3 μM nicardipine hydrochloride was added to the latter Krebs buffer to paralyze the smooth muscle to isolate chemosensory afferent signals from motility-related vagal responses (Perez-Burgos et al., Am J Physiol Gastrointest Liver Physiol 304: G211-220, 2013).
# The nerve bundle was gently sucked onto a glass pipette attached to a patch-clamp electrode holder (CV-7B; Molecular Devices, Sunnyvale, Calif.), and extracellular nerve recordings were performed using a Multi-Clamp 700B amplifier and Digidata 1440A signal converter (Molecular Devices). Electrical signals were bandpass-filtered at 0.1-2 kHz, sampled at 20 kHz, and stored on a personal computer running pClamp 10 software (Molecular Devices) for post hoc analysis. Constitutive multiunit electrical activity was always recorded from the mesenteric nerve bundle even when the lumen was perfused with only Krebs buffer. Baseline recordings with Krebs buffer in the lumen were performed for 15 min, after which the luminal perfusate was switched to one containing Krebs buffer with substances to be tested (fluoxetine 30 μM, sertraline 10 μM, bupropion (WELLBUTRIN®) 10 μM, Lactobacillus rhamnosus JB-1 10^9 cfu/mL, or squalamine 10 μM). Recording in the presence of test substances was performed for up to 40 min after which the luminal perfusate was again switched to Krebs buffer and recording continued for up to 30 min.
# Single units representing discharge from individual single vagal fibers were discriminated and identified by their unique spike waveform shape and amplitude (Rong et al., J Physiol 560: 867-881, 2004) using Dataview computer software (Heitler, Journal of Undergraduate Neuroscience Education 6: A1-A7, 2007). Dataview uses principal component analysis to sort the recorded multiunit spikes into individual single unit categories according to shape and amplitude (Heitler, Journal of Neuroscience Methods 185: 151-164, 2009).
# Control and treatment periods were identified from event markers inserted at the time of recording. Then, for each channel (color-coded unit), spike bursts were detected using the “Poisson surprise” method devised by Legéndy & Salcman (Legendy & Salcman, J Neurophysiol 53: 926-939, 1985). A surprise was defined as −log 10(p), where p is the probability of a set of events occurring this close together by chance. […]
# vagal afferent = settings: aged mice with reduced firing frequency; cited from earlier work
# [4] = system: patients with Parkinson's disease (PD) and severe constipation; settings: cited from earlier work
# colonic motility = settings: applied intraluminally in mice; cited from earlier work
Structure (SMILES),effect on depressive and anxiety behavior in vagotomized mice [1],dependency of the effect on the vagus nerve [1],"Average inter-pulse duration, lower 95% CI [3] [ms]","Average inter-pulse duration, upper 95% CI [3] [ms]","Burst duration, lower 95% CI [3] [ms]","Burst duration, upper 95% CI [3] [ms]","Inter-burst duration, lower 95% CI [3] [ms]","Inter-burst duration, upper 95% CI [3] [ms]","Inter-pulse duration within bursts, lower 95% CI [3] [ms]","Inter-pulse duration within bursts, upper 95% CI [3] [ms]",Fraction average inter-pulse duration [3],Fraction burst duration [3],Fraction inter-burst duration [3],Fraction inter-pulse duration within bursts [3],depressive and anxiety behavior in mice [1],further results
"CC(NC(C)(C)C)C(=O)c1cccc(Cl)c1 (stereo not drawn) [Bupropion, bupropion]",present,not to be dependent on the vagus nerve,896,1081,412,543,49779,66105,105,124,0.2919,0.1778,1.152,0.01576,–,average inter-pulse durations as compared to control mice [2]: no difference
"CNCCC(Oc1ccc(C(F)(F)F)cc1)c1ccccc1 (stereo not drawn) [Fluoxetine, fluoxetine]",disappeared; also recorded: no effect,dependent on the vagus nerve,612,983,510,771,11524,44175,101,138,−0.3964,0.6424,−0.1795,0.2705,decreased,"Inter-burst duration, lower 95% CI ([3]; listed as fluoxetine): 11 524 ms; Inter-burst duration, upper 95% CI ([3]; listed as fluoxetine): 44 175 ms"
"CC(C)[C@@H](CC[C@@H](C)[C@H]1CC[C@H]2[C@@H]3[C@H](O)C[C@H]4C[C@@H](NCCCNCCCCN)CC[C@]4(C)[C@H]3CC[C@]12C)OS(=O)(=O)O [Squalamine, 3(3β,5α,7α,24R)-3-({3-[(4-aminobutyl)amino]propyl}amino)-7-hydroxycholestan-24-yl hydrogen sulfate]",–,–,334,675,111,1954,11233,34229,98,136,−0.183,0.6752,−0.2957,0.1394,–,"vagal afferent firing frequency (vagal afferent): increases; Burst duration, lower 95% CI ([3]; listed as squalamine): 110 ms; Burst duration, upper 95% CI ([3]; listed as squalamine): 1 954 ms; Inter-burst duration, lower 95% CI ([3]; listed as squalamine): 11 233 ms; Inter-burst duration, upper 95% CI ([3]; listed as squalamine): 34 229 ms; Inter-pulse duration within bursts, upper 95% CI ([3]; listed as squalamine): 136 ms; vagus code compared with other antidepressants ([3]; squalamine 10 μM in lumen): almost identical vagus code as sertraline; relief of constipation ([4]; increasing dosage schedule, 50 patients): positive beneficial effects; neurological symptoms in PD patients like hallucinations, sleep and circadian rhythm disturbances ([4]; while patients were taking the drug): attenuated or prevented; age and loperamide-related dysmotility (colonic motility): reversed; effects on colonic motility (colonic motility): prokinetic effects"
"CN[C@H]1CC[C@@H](c2ccc(Cl)c(Cl)c2)c2ccccc21 [Sertraline, sertraline]",disappeared,dependent on the vagus nerve; also recorded: same dependency of action,386,614,516,676,16160,36270,87,110,−0.1627,0.6184,−0.1554,0.1936,decreased,"Inter-burst duration, lower 95% CI ([3]; listed as sertraline): 16 160 ms; Inter-burst duration, upper 95% CI ([3]; listed as sertraline): 36 270 ms"
